Assay results published in patent US20240108008A1, “COMPOSITIONS COMPRISING MESOSULFURON-METHYL AND TEHP” (BAYER AKTIENGESELLSCHAFT, priority 2020, published 2024).

What was measured:
TRZAW, winter wheat = assay: Greenhouse selectivity trials, wheat crop injury post-emergence; assay type: in vivo, winter wheat (variety: Dekan); conditions: 2 kg of TEHP per hectare, in combination with mesosulfuron-methyl and/or a salt thereof
Description: The 00 damage (injury) indicated refers to the maximum damage observed in the respective crop.

harmful plants = assay: Adjuvant effect on performance of mesosulfuron-methyl; assay type: in vivo; conditions: same application rate as tri(butoxyethyl) phosphate (TBEP)

CCCCC(CC)COP(=O)(OCC(CC)CCCC)OCC(CC)CCCC (centres unmarked) [TEHP, Tris(2-ethylhexyl) phosphate]
phytotoxic effects in crop plants such as wheat (TRZAW, winter wheat): significant phytotoxic effects | effects as adjuvant in comparison to TBEP (harmful plants): superior
